Measured values from patent EP4775208A1, “USE OF PRMT5 INHIBITOR IN TREATMENT OF TUMORS OR CANCERS” (Apeiron Therapeutics (Hong Kong) Ltd., priority 2023, dated 2025).

Tested on: Human glioma U87-luc cells
Assay: In vivo efficacy in U87 orthotopic xenograft model (bioluminescence imaging)
Design: species or system BALB/c nude mice
Conditions: for Bioluminescence Signal (photons/sec), Mean: 30 mg/kg, PO, QD, U87-luc orthotopic
Experimental: V. In Vivo Efficacy of Compounds of the Present Disclosure in U87 Orthotopic Xenograft Models
Cell Culture: Human glioma U87-luc cells (Caliper-124577) were cultured as monolayers in vitro. The cells were maintained in EMEM supplemented with 10% fetal bovine serum (FBS), 100 U/mL penicillin, and 100 µg/mL streptomycin in an incubator at 37°C with 5% CO2. Routine subculturing was performed twice weekly using trypsin-EDTA. When the cells reached 80-90% confluence and the required cell number was achieved, the cells were harvested, counted, and prepared for inoculation.
Animals: Female BALB/c nude mice, weighing 18-20 g. A total of 50 mice were obtained (target study size of 24 mice, with an […]). The animals were provided by Beijing Vital River Laboratory Animal Technology Co., Ltd.
Tumor Inoculation: Prior to cell inoculation, each nude mouse was anesthetized via intraperitoneal injection of 1.25% avertin at a dose of 20 µL/g. The anesthetized mouse was fixed onto a stereotaxic instrument. The scalp was disinfected with 70% ethanol and covered with a sterile drape. A midline longitudinal incision (approximately 1 cm) was made to expose the skull. A small hole was drilled using a cranial drill at the coordinates 2 mm right and 0.5 mm anterior to the bregma. Using a microsyringe, 3 µL of U87-luc cell suspension (3.0×10^5 cells in PBS containing 20% Matrigel) was injected into the hole at a depth of 3.5 mm from the skull surface. The burr hole was sealed with tissue adhesive (or bone wax), the incision was sutured, and the skin was disinfected with povidone-iodine solution. The animals were kept warm on a heating pad during the recovery period and monitored until fully awake before being returned to their cages.
Analgesia: For analgesia, Meloxicam (3 mg/kg) was injected subcutaneously 30 minutes prior to surgery and 24 hours post-surgery.
Bioluminescence Imaging: Mice were weighed and administered D-luciferin (150 mg/kg) via intraperitoneal injection. Ten minutes post-injection, the mice were anesthetized using a mixture of oxygen and isoflurane. Once fully anesthetized, the animals were transferred to the IVIS Lumina III in vivo imaging system for detection. Bioluminescence measurements were acquired for all mice at 13 minutes post-injection. Whole-body bioluminescence, including metastatic tumors, was measured and images were captured. Imaging was performed on Day 7 post-inoculation and weekly thereafter following grouping and dosing (5 time points in total). The data are presented as bioluminescence signal values.
Animal Grouping: Seven days after cell inoculation, 24 mice were selected from the total of 50 mice based on their bioluminescence values. Using an Excel-based stratified randomization procedure, the mice were divided into 3 groups (8 mice per group): the Vehicle group, the 15 mg/kg BID group, and the 30 mg/kg QD group.
Experimental Endpoint: The experimental endpoint is animal survival.
Monitoring and Data Analysis: Animals were monitored daily, and the time of death was recorded. […] If an animal's health deteriorated or it became moribund (characterized by significant weight loss >20%, inability to eat or drink normally, difficulty moving, or paralysis), it was considered a mortality event and immediately euthanized via CO2 inhalation.
The Median Survival Time (MST, days) was calculated for each group. The Increase in Life-Span (ILS) was calculated by comparing the MST of the treatment group to that of the model control group, expressed as a percentage increase over the control group. The calculation is as follows: ILS(%) = (MSTt−MSTv)/MSTv × 100 [formula] Where: • MSTt: Median Survival Time of the treatment group • MSTv: Median Survival Time of the Vehicle group
Tumor Growth Monitoring: Bioluminescence signal intensity was used to monitor intracranial tumor growth. Bioluminescence imaging was performed once or twice weekly. […]

With CN(C(=O)c1ccc2nc(N)c3cncn3c2c1)[C@@H]1COc2cc(C(F)(F)F)ccc21 [Example 107, (S)-4-amino-N-methy 1-N-(6-(trifluoromethy 1)-2,3-dihydrobenzofuran-3-yl)imidazo[1,5-a]quinoxaline-8-carboxamide] the “Tumor Growth Inhibition (TGI) rate” value (30 mg/kg once daily (QD) for 28 days, U87MG orthotopic mouse xenograft) was “exceeding 100%”, the “Bioluminescence Signal (photons/sec), Mean” value (day 0) was 5.837E+06 photons/sec and the “Bioluminescence Signal (photons/sec), Mean” value (day 7) was 1.419E+06 photons/sec. For the same compound, the “Bioluminescence Signal (photons/sec), Mean” value (day 14) was 1.930E+06 photons/sec, the “Bioluminescence Signal (photons/sec), Mean” value (day 21) was 1.968E+06 photons/sec and the “Bioluminescence Signal (photons/sec), Mean” value (day 28) was 2.412E+06 photons/sec.
